One experiment concerns serotonin-2 receptor. Briefly: Anti-serotonin action (anti-5-HT action): contraction of isolated superior mesenteric artery induced by serotonin. Particulars: contraction induced by 10^−5 M serotonin (5-HT) taken as 100%, Hartley male guinea pig superior mesenteric artery; for Anti 5-HT action (% of Control) 10^−6 M: test drug 10^−6 M; for Anti 5-HT action (% of Control) 10^−7 M: test drug 10^−7 M. On the procedure:
(1) Anti-Serotonin Action (Anti-5-HT Action)
A preparation cut in a helical form was suspended under 0.3 g load in a Magnus cylinder filled with the Tyrode solution which had been aerated with a gas mixture of 95% O2+5% CO2 and maintained at 37° C. Using an isometric transducer (“UL-10”, manufactured by SHINKOH K.K.) and a pressure preamplifier (“DSA-605A”, manufactured by SHINKOH K.K.), variations in tension were measured. The isometric tensions were recorded on a pen-writing recorder (“VP-6537A”, manufactured by NATIONAL K.K.). Taking the contraction induced by 10^−5 M serotonin (5-HT) as 100%, the percent contractions in the presence of each test drug at 10^−7 and 10^−6 M were determined as anti-5-HT action.

The next experiment relates to α1 receptor. Briefly: Anti-α1 action: tonic contraction of isolated thoracic aorta induced by norepinephrine. To be noted: tonic contraction induced by 10^−5 M norepinephrine (NE) taken as 100%, Hartley male guinea pig thoracic aorta; for Anti α1 action (% of Control) 10^−7 M: test drug 10^−7 M; for Anti α1 action (% of Control) 10^−8 M: test drug 10^−8 M. On the procedure:
The thoracic aorta of each Hartley male guinea pig (body weight: 300-500 g) was excised. A preparation cut in a helical form was suspended under 1 g load in a Magnus cylinder filled with the Tyrode solution which had been aerated with a gas mixture of 95% O2+5% CO2 and maintained at 37° C. Using an isometric transducer (“TB-612J”, manufactured by NIHON KOHDEN) and a pressure preamplifier (“AP-620G”, manufactured by NIHON KOHDEN), variations in tension were measured. The isometric tensions were recorded on a thermal pen-writing recorder (“WT-647G”, manufactured by NIHON KOHDEN).
Taking the tonic contraction induced by 10^−5 M norepinephrine (NE) as 100%, the percent contractions upon addition of each test drug at 10^−8 and 10^−7 M were determined as anti-α1 action.

Turning to `COC1CN(CCCN2CCN(c3ccc(F)cc3)CC2)S(=O)(=O)c2ccccc21` (stereo not drawn) [Compound No. 57, 2-[3-[4-(4-fluorophenyl)piperazin-1-yl]propyl]-4-methoxy-3,4-dihydro-2H-1,2-benzothiazine 1,1-dioxide], in the experiment with serotonin-2 receptor, the “Anti 5-HT action (% of Control) 10^−6 M” value is listed as 10.0 % of Control and the “Anti 5-HT action (% of Control) 10^−7 M” value is 22.0 % of Control. In the experiment on α1 receptor, the “Anti α1 action (% of Control) 10^−7 M” value is on record as 81.6 % of Control and the “Anti α1 action (% of Control) 10^−8 M” value is given as 97.3 % of Control.
With `O=S1(=O)c2ccccc2C2(CN1CCCN1CCN(c3ccc(F)cc3)CC1)SCCS2` [Compound No. 66, 2-[3-[4-(4-fluorophenyl)piperazin-1-yl]propyl]-3,4-dihydro-2H-1,2-benzothiazine-4-spiro-2′-(1′,3′-dithiolan) 1,1-dioxide], in the experiment on serotonin-2 receptor, the “Anti 5-HT action (% of Control) 10^−6 M” value is on record as 2.8 % of Control and the “Anti 5-HT action (% of Control) 10^−7 M” value is recorded as 66.6 % of Control. In the experiment with α1 receptor, the “Anti α1 action (% of Control) 10^−7 M” value is listed as 86.5 % of Control and the “Anti α1 action (% of Control) 10^−8 M” value is on record as 100 % of Control.
On to `COC1=CN(CCCN2CCN(c3ccc(F)cc3)CC2)S(=O)(=O)c2ccccc21` [Compound No. 56, 2-[3-[4-(4-fluorophenyl)piperazin-1-yl]propyl]-4-methoxy-2H-1,2-benzothiazine 1,1-dioxide], for which, in the experiment with serotonin-2 receptor, the “Anti 5-HT action (% of Control) 10^−6 M” value is listed as 16.9 % of Control and the “Anti 5-HT action (% of Control) 10^−7 M” value is reported as 60.8 % of Control. Further, in the experiment on α1 receptor, the “Anti α1 action (% of Control) 10^−7 M” value is on record as 69.5 % of Control and the “Anti α1 action (% of Control) 10^−8 M” value is reported as 95.4 % of Control.
Consider `O=C(c1ccc(F)cc1)C1CCN(CCCN2CC3(OCCO3)c3ccccc3S2(=O)=O)CC1` [Compound No. 40, 2-[3-[4-(4-fluorobenzoyl)piperidino]-propyl]-3,4-dihydro-2H-1,2-benzothiazine-4-spiro-2′-(1′,3′-dioxolan) 1,1-dioxide], for which, in the experiment on serotonin-2 receptor, the “Anti 5-HT action (% of Control) 10^−6 M” value was 13.4 % of Control and the “Anti 5-HT action (% of Control) 10^−7 M” value is given as 37.4 % of Control. For the same compound, in the experiment on α1 receptor, the “Anti α1 action (% of Control) 10^−7 M” value was 73.2 % of Control and the “Anti α1 action (% of Control) 10^−8 M” value is 98.3 % of Control.
`COc1cccc2c1C1(CN(CCCN3CCN(c4ccc(F)cc4)CC3)S2(=O)=O)SCCS1` [Compound No. 123, 2-[3-[4-(4-fluorophenyl)piperazin-1-yl]propyl]-5-methoxy-3,4-dihydro-2H-1,2-benzothiazine-4-spiro-2′-(1′,3′-dithiolane) 1,1-dioxide]: the “Anti 5-HT action (% of Control) 10^−7 M” value in the experiment on serotonin-2 receptor is 49.3 % of Control. In addition, in the experiment with α1 receptor, the “Anti α1 action (% of Control) 10^−7 M” value is 13.0 % of Control and the “Anti α1 action (% of Control) 10^−8 M” value was 97.9 % of Control.
Turning to `O=S1(=O)c2ccccc2C(O)CN1CCCN1CCN(c2ccc(F)cc2)CC1` (stereo not drawn) [Compound No. 77, 2-[3-[4-(4-fluorophenyl)piperazin-1-yl]propyl]-4-hydroxy-3,4-dihydro-2H-1,2-benzothiazine 1,1-dioxide], in the experiment on serotonin-2 receptor, the “Anti 5-HT action (% of Control) 10^−6 M” value is recorded as 18.2 % of Control and the “Anti 5-HT action (% of Control) 10^−7 M” value is on record as 45.7 % of Control. For the same compound, in the experiment on α1 receptor, the “Anti α1 action (% of Control) 10^−7 M” value is 79.6 % of Control and the “Anti α1 action (% of Control) 10^−8 M” value is reported as 100 % of Control.
Taken in the same sequence, the figures for `O=S1(=O)c2ccccc2C2(CN1CCCN1CCN(c3ccccc3F)CC1)OCCO2` [compound 35, 2-[3-[4-(2-fluorophenyl)piperazin-1-yl]propyl]-3,4-dihydro-2H-1,2-benzothiazin-4-one 1,1-dioxide ethylene acetal] were 7.5 % of Control, 38.3 % of Control, 89.3 % of Control and 99.0 % of Control.
